Results published in patent US7375088B2, “Polyene polyketides, processes for their production and their use as a pharmaceutical” (Thallion Pharmaceuticals Inc., priority 2003, dated 2008).
Values after ≈ are worked out from the molar mass of the structure shown. Like-named read-outs stand apart in the source and are kept apart here.

What was measured:
[1] = system: Aspergillus flavus; test: Disk diffusion assay (MEC and zone of inhibition); format: cell-based
[2] = system: 60 different human tumor cell lines; test: NCI in vitro antiproliferative screen, 60 human tumor cell lines (SRB, GI50); format: cell-based
Procedure: (§1) In Vitro antipoliferative study of Compound 2a was performed by the National Cancer Institute (National Institutes of Health, Bethesda, Md., USA) against a panel of cancer cell lines in order to determine the concentrations needed to obtain a 50% inhibition of cell proliferation (IC50). The operation of this unique screen utilizes 60 different human tumor cell lines, representing leukemia, melanoma, and cancers of the lung, colon, brain, ovary, breast prostate and kidney. Compound 2(a) was provided as a lyophilized powder with an estimated purity of 90+%. The compound was stored at −20° C. until day of use.
(§2) The human tumor cell lines of the cancer-screening panel were grown in RPMI 1640 medium containing 5% fetal bovine serum and 2 mM L-glutamine. For a typical screening experiment, cells were inoculated into 96 well microtiter plates in 100 μl at plating densities ranging from 5000 to 40,000 cells/well depending on the doubling time of individual cell lines (Table 8). After cell inoculation, the microtiter plates were incubated at 37° C., under 5% CO2, 95% air and 100% relative humidity for 24 hours prior to addition of the experimental drugs.
(§3) After 24 hours, two plates of each cell line were fixed in situ with TCA, to represent a measurement of the cell population for each cell line at the time of drug addition (Tz). Compound 2(a) was solubilized in dimethyl sulfoxide at 400-fold the desired final maximum test concentration and stored frozen prior to use. At the time of drug addition, an aliquot of frozen concentrate was thawed and diluted to twice the desired final maximum test concentration with complete medium containing 50 μg/ml gentamicin. Additional four, serial dilutions were made to provide a total of five drug concentrations plus control. Aliquots of 100 μl of these different drug dilutions were added to the appropriate microtiter wells already containing 100 μl of medium, resulting in the required final drug concentrations (2.5×10^−5 M to 2.5×10^−9 M).
(§4) Following drug addition, the plates were incubated for an additional 48 hours at 37° C., 5% CO2, 95% air, and 100% relative humidity. For adherent cells, the assay was terminated by the addition of cold TCA. Cells were fixed in situ by the gentle addition of 50 μl of cold 50% (w/v) TCA (final concentration, 10% TCA) and incubation for 60 minutes at 4° C. The supernatant was discarded, and the plates were washed five times with tap water and air-dried. Sulforhodamine B (SRB) solution (100 μl) at 0.4% (w/v) in 1% acetic acid was added to each well, and plates were incubated for 10 minutes at room temperature. After staining, unbound dye was removed by washing five times with 1% acetic acid and the plates were air-dried. Bound stain was subsequently solubilized with 10 mM trizma base, and the absorbance was read on an automated plate reader at a wavelength of 515 nm. For suspension cells, the methodology was the same except that the assay was terminated by fixing settled cells at the bottom of the wells by gently adding 50 μl of 80% TCA (final concentration, 16% TCA).
(§5) The growth inhibitory power of compound 2(a) was measured by NCl utilizing the GI50 value, rather than the classical IC50 value. The GI50 value emphasizes the correction for the cell count at time zero and, using the seven adsorbance measurements [time zero (Tz), control growth (C), and the test growth in the presence of drug at each of the five concentration levels (Ti)], GI50 is calculated as [(Ti−Tz)/(C−Tz)×100=−50. which is the drug concentration resulting in a 50% reduction in the net protein increase (as measured by SRB staining) in control cells during the drug incubation.

[3] = system: Aspergillus flavus ATCC 204304; test: MIC broth microdilution assay
Procedure: (§6) Test compound preparation: The test article was prepared as 100× stock solutions in DMSO, with concentrations ranging from 3.2 mg/ml to 0.0625 mg/ml (a two-fold dilution series over 10 points). The first dilution (3.2 mg/ml) was prepared by resuspending 0.5 mg of each test article in 156.25 μl of DMSO. The stock is then serially diluted by two-fold increments to obtain the desired concentration range.
(§7) Inoculum preparation: For fungal strains, the inoculum was prepared as follows. From an overnight culture in Yeast Media broth, cell density was adjusted in 0.85% saline to 0.5 McFarland. This procedure yielded a stock suspension of about 5×10^6 cells/ml. Following thorough vortexing, a working suspension was prepared by diluting the stock 1:50 in RPMI 1640, and then further diluting it 1:20 with RPMI 1640 to obtain the 2× test inoculum (about 5×10^3 cells/ml). For filamentous fungi, the inoculum was prepared as follows. […]
(§8) 50 μl of the final cell dilution (yeast, filamentous fungi or bacteria) of each indicator strain was added to each corresponding well of the microplate containing 50 μl of diluted drug or media alone. […] MIC readings were determined at 24 and 48 hrs for the Candida and Aspergillus species, and at 48 and 72 hrs for Cryptococcus neoformans. MIC readout for each indicator was determined as the lowest concentration of test compound resulting in total absence of growth.

[4] = system: Cryptococcus neoformans ATCC 32045; test: MIC broth microdilution assay
Procedure: as §6, §7, §8

[5] = system: Aspergillus fumigatus ATCC 204305; test: MIC broth microdilution assay
Procedure: as §6, §7, §8

[6] = system: HCC2998/colon carcinoma; test: NCI in vitro antiproliferative screen (SRB, GI50); format: cell-based, human
Procedure: as §1, §2, §3, §4, §5

[7] = system: HOP92/non-small cell lung carcinoma; test: NCI in vitro antiproliferative screen (SRB, GI50); format: cell-based, human
Procedure: as §1, §2, §3, §4, §5

[8] = system: SN12C/renal carcinoma; test: NCI in vitro antiproliferative screen (SRB, GI50); format: cell-based, human
Procedure: as §1, §2, §3, §4, §5

## CC(C=CCCC=CC=CC=CC=CC(=O)NC1=C(O)CCC1=O)C(O)C(C)C(O)C=CC=CC=CC=CC=CCC(OC1OC(C)C(O)C(O)C1O)C(C)C(=O)CC(O)CC(O)CC(O)C=CCC(O)CC(O)CC(O)CC(O)C=CCC(O)CC(O)CCCN (stereo not drawn) [Compound 2(a), 56-Amino-15,17,33,35,37,41,43,45,47,51,53-undecahydroxy-14,16,30-trimethyl-31-oxo-29-(3,4,5-trihydroxy-6-methyl-tetrahydro-pyran-2-yloxy)-hexapentaconta-2,4,6,8,12,18,20,22,24,26,38,48-dodecaenoic acid (2-hydroxy-5-oxo-cyclopent-1-enyl)-amide]
[1]
  antifungal activity in disk diffusion assay: active
[1]; at the MEC, 24 hours of incubation
  ZOI (zone of inhibition of fungal growth calculated for each MEC): 2.7 mm
[1]; disk diffusion, 24 hours of incubation
  MEC (minimum effective concentration): 2.5 µg/mL
[2]; 786-0, 48 h, 786-0, Renal cancer, read-out: GI50
  GI50: 3.07 µM
[2]; 48 h, MDA-MB-, Breast cancer
  GI50: 3.38 µM
[2]; 48 h, PC-3, Prostate cancer, read-out: GI50
  GI50: 2.66 µM
[2]; 48 h, all cell lines of the NCI screening panel, 48 hours drug incubation
  GI50: < 10 µM
[2]; A498, 48 h, A498, Renal cancer, read-out: GI50
  GI50: 4.82 µM
[2]; A549, 48 h, A549/ATCC, Non-small cell lung cancer, read-out: GI50
  GI50: 4.09 µM
[2]; ACHN, 48 h, ACHN, Renal cancer, read-out: GI50
  GI50: 2.96 µM
[2]; BT-549, 48 h, BT-549, Breast cancer, read-out: GI50
  GI50: 4.59 µM
[2]; CAKI-1, 48 h, CAKI-1, Renal cancer, read-out: GI50
  GI50: 2.99 µM
[2]; COLO 205, 48 h, COLO 205, Colon cancer, read-out: GI50
  GI50: 5 µM
[2]; DU-145, 48 h, DU-145, Prostate cancer, read-out: GI50
  GI50: 3.78 µM
[2]; EKVX, 48 h, EKVX, Non-small cell lung cancer, read-out: GI50
  GI50: 5.87 µM
[2]; HCT-15, 48 h, HCT-15, Colon cancer, read-out: GI50
  GI50: 3.25 µM
[2]; HCT-116, 48 h, HCT-116, Colon cancer, read-out: GI50
  GI50: 4.18 µM
[2]; HOP-62, 48 h, HOP-62, Non-small cell lung cancer, read-out: GI50
  GI50: 6.83 µM
[2]; HT-29, 48 h, HT29, Colon cancer, read-out: GI50
  GI50: 6.36 µM
[2]; IGROV-1, 48 h, IGROV1, Ovarian cancer, read-out: GI50
  GI50: 2.95 µM
[2]; K562, 48 h, K-562, Leukemia, read-out: GI50
  GI50: 9.18 µM
[2]; KM12, 48 h, KM12, Colon cancer, read-out: GI50
  GI50: 2.76 µM
[2]; LOX IMVI, 48 h, LOX IMVI, Melanoma, read-out: GI50
  GI50: 3.73 µM
[2]; M14, 48 h, M14, Melanoma, read-out: GI50
  GI50: 4.15 µM
[2]; MCF7, 48 h, MCF7, Breast cancer, read-out: GI50
  GI50: 4.22 µM
[2]; MDA-MB-435, 48 h, MDA-MB-435, Breast cancer, read-out: GI50
  GI50: 3.26 µM
[2]; MOLT-4, 48 h, MOLT-4, Leukemia, read-out: GI50
  GI50: 5.57 µM
[2]; Malme-3M, 48 h, MALME-3M, Melanoma, read-out: GI50
  GI50: 2.4 µM
[2]; NCI-H23, 48 h, NCI-H23, Non-small cell lung cancer, read-out: GI50
  GI50: 4.25 µM
[2]; NCI-H226, 48 h, NCI-H226, Non-small cell lung cancer, read-out: GI50
  GI50: 3.1 µM
[2]; NCI-H322M, Non-small cell lung cancer, 48 h, read-out: GI50
  GI50: 3.48 µM
[2]; NCI-H460, 48 h, NCI-H460, Non-small cell lung cancer, read-out: GI50
  GI50: 3.83 µM
[2]; NCI-H522, 48 h, NCI-H522, Non-small cell lung cancer, read-out: GI50
  GI50: 2.8 µM
[2]; NCI/ADR-RES, 48 h, NCI/ADR-RES, Breast cancer, read-out: GI50
  GI50: 4.76 µM
[2]; OVCAR-3, 48 h, OVCAR-3, Ovarian cancer, read-out: GI50
  GI50: 3.4 µM
[2]; OVCAR-4, 48 h, OVCAR-4, Ovarian cancer, read-out: GI50
  GI50: 4.48 µM
[2]; OVCAR-5, 48 h, OVCAR-5, Ovarian cancer, read-out: GI50
  GI50: 4 µM
[2]; OVCAR-8, 48 h, OVCAR-8, Ovarian cancer, read-out: GI50
  GI50: 4.34 µM
[2]; RXF 393, 48 h, RXF 393, Renal cancer, read-out: GI50
  GI50: 1.2 µM
[2]; SF-268, 48 h, SF-268, CNS cancer, read-out: GI50
  GI50: 3.64 µM
[2]; SF-295, 48 h, SF-295, CNS cancer, read-out: GI50
  GI50: 3.91 µM
[2]; SK-MEL-2, 48 h, SK-MEL-2, Melanoma, read-out: GI50
  GI50: 4.34 µM
[2]; SK-MEL-5, 48 h, SK-MEL-5, Melanoma, read-out: GI50
  GI50: 4.16 µM
[2]; SK-MEL-28, 48 h, SK-MEL-28, Melanoma, read-out: GI50
  GI50: 6.75 µM
[2]; SK-OV-3, 48 h, SK-OV-3, Ovarian cancer, read-out: GI50
  GI50: 7.94 µM
[2]; SNB-19, 48 h, SNB-19, CNS cancer, read-out: GI50
  GI50: 5.58 µM
[2]; SNB-75, 48 h, SNB-75, CNS cancer, read-out: GI50
  GI50: 3.87 µM
[2]; SW-620, 48 h, SW-620, Colon cancer, read-out: GI50
  GI50: 5.35 µM
[2]; T47D, 48 h, T-47D, Breast cancer, read-out: GI50
  GI50: 6 µM
[2]; TK-10, 48 h, TK-10, Renal cancer, read-out: GI50
  GI50: 3.32 µM
[2]; U-251, 48 h, U251, CNS cancer, read-out: GI50
  GI50: 3.65 µM
[2]; UACC-62, 48 h, UACC-62, Melanoma, read-out: GI50
  GI50: 2.68 µM
[2]; UACC-257, 48 h, UACC-257, Melanoma, read-out: GI50
  GI50: 3.74 µM
[2]; UO-31, 48 h, UO-31, Renal cancer, read-out: GI50
  GI50: 3.65 µM
[3]; ATCC204304, 24 h
  MIC: 4 mg/L (≈ 3.08 µM)
[3]; ATCC204304, 48 h
  MIC: 8 mg/L (≈ 6.17 µM)
[4]; ATCC32045, 48 h
  MIC: 2 mg/L (≈ 1.54 µM)
[4]; ATCC32045, 72 h
  MIC: 4 mg/L (≈ 3.08 µM)
[5]; ATCC204305, 24 h
  MIC: 16 mg/L (≈ 12.3 µM)
[5]; ATCC204305, 48 h
  MIC: 16 mg/L (≈ 12.3 µM)
[6]; HCC2998/colon carcinoma, 48 hours
  GI50 level: nanomolar or picomolar level
[6]; Homo sapiens, HCC-2998, Colon cancer, 48 h
  GI50: 0.0603 µM
[7]; HOP92/non-small cell lung carcinoma, 48 hours
  GI50 level: nanomolar or picomolar level
[7]; Homo sapiens, HOP-92, Non-small cell lung cancer, 48 h
  GI50: 0.0977 µM
[8]; Homo sapiens, SN12C, Renal cancer, 48 h
  GI50: 0.138 µM
[8]; SN12C/renal carcinoma, 48 hours
  GI50 level: nanomolar or picomolar level
